# In PMC10004777 (Molecules, 2023):
# Key:
# [1] = test system: osteosarcoma cell line SJSA-1; experiment: Cell viability (MTT) assay, SJSA-1; assay type: cell-based
# Method: (§1) To investigate the selectivity of these derivatives towards different tumor cell lines, we also selected HepG2 and osteosarcoma cell line SJSA-1 cells to evaluate the anti-proliferation activity of the derivatives. […] Except for compounds A2 and A11, the effects of other compounds on SJSA-1 were not strong.
# (§2) The cell lines present in this study were obtained from Procell Life Science & Technology Co. Ltd. MCF-7, HepG2 and SJSA-1 cells were cultured in DMEM medium (DMEM, Gibco) supplemented with 10% fetal bovine serum (FBS, Gibco), 1% penicillin-streptomycin (Hyclone) at 37℃ in a humid environment with 5% CO2. HK-2 cells were cultured in DMEM/F12 (1:1) medium and placed in incubators in the same environment.
# (§3) Cell viability was determined by MTT assay. MCF-7, HepG2, SJSA-1 and HK-2 cells (6 × 10^3 cells /well) were seeded in 96-well plates with serum-free medium for 24 h. […] After 48 or 72 h, 10 μL MTT (5 mg/mL, Beyotime) was added and incubated at 37 °C for 4 h. Then 100 μL of lysate was added. After complete dissolution of the crystal, the absorbance was measured at 540 nm and expressed as the average percentage of absorbance between treated and control cells. The value for control cells was set at 100%. Cell survival rate was calculated as the ratio of the absorbance of the cells and negative control after minus the blank absorbance respectively.
# HepG2 cells = experiment: Cell viability (MTT) assay, HepG2; assay type: cell-based; details: for anti-proliferation activity on HepG2 (in words): HepG2, 48 h
# Method: as §1, §2, §3
# [2] = test system: MCF-7 breast cancer cells; experiment: Cell viability (MTT) assay, MCF-7; assay type: cell-based; details: for anti-proliferation activity on MCF-7 compared with GAA: MCF-7, 48 h
# Method: MCF-7 is a commonly used tumor cell line.
# as §2, §3
# HK-2 cells = experiment: Cell viability (MTT) assay, HK-2 normal cells (cytotoxicity); assay type: cell-based
# Method: as §2, §3
SMILES,melting point [°C],Viability of Cells (% of Control) ([1]; 50 µM),Viability of Cells (% of Control) ([1]; 100 µM),Viability of Cells (% of Control) (HepG2 cells; 25 µM),Viability of Cells (% of Control) (HepG2 cells; 50 µM),Viability of Cells (% of Control) ([2]; 25 µM),Viability of Cells (% of Control) ([2]; 50 µM),Viability of Cells (% of Control) ([2]; 100 µM),Viability of Cells (% of Control) (HK-2 cells; 50 µM),Viability of Cells (% of Control) (HK-2 cells; 100 µM),anti-proliferation activity on HepG2 (in words) (HepG2 cells),toxicity to HK2 cells (in words) (HK-2 cells),"inhibition at 50 µM ([2]; Homo sapiens, MCF7, MCF-7, 50 µM, 48 h, read-out: inhibition rate of MCF-7) [%]",anti-proliferation activity on MCF-7 compared with GAA [2]
"CCCCNC(=O)[C@H](C)CC(=O)C[C@@H](C)[C@H]1C[C@H](O)[C@@]2(C)C3=C(C(=O)C[C@]12C)[C@@]1(C)CCC(=O)C(C)(C)[C@@H]1C[C@@H]3O [Compound A1, (n-butyl)-(7β,15α,25R)-7,15-Dihydroxy-3,11,23-Trioxolanost-8-en-26-oic Amide]",120.7 to 121.5,87.9 ± 0.9 % of Control,74.0 ± 3.8 % of Control,90.5 ± 1.1 % of Control,87.2 ± 3.1 % of Control,96.6 ± 6.2 % of Control,114.3 ± 1.2 % of Control,78.7 ± 3.4 % of Control,,,,,,
"Cc1ccc(NC(=O)[C@H](C)CC(=O)C[C@@H](C)[C@H]2C[C@H](O)[C@@]3(C)C4=C(C(=O)C[C@]23C)[C@@]2(C)CCC(=O)C(C)(C)[C@@H]2C[C@@H]4O)cc1 [Compound A3, (4-Methylphenyl)-(7β,15α,25R)-7,15-Dihydroxy-3,11,23-Trioxolanost-8-en-26-oic Amide]",174.3 to 175.5,85.3 ± 1.1 % of Control,83.3 ± 3.0 % of Control,90.1 ± 1.1 % of Control,76.3 ± 1.1 % of Control,110.9 ± 2.2 % of Control,114.3 ± 1.2 % of Control,78.7 ± 3.9 % of Control,,,,,,
"C[C@H](CC(=O)C[C@@H](C)[C@H]1C[C@H](O)[C@@]2(C)C3=C(C(=O)C[C@]12C)[C@@]1(C)CCC(=O)C(C)(C)[C@@H]1C[C@@H]3O)C(=O)Nc1ccc(Cl)cc1 [Compound A4, (4-Chlorophenyl)-(7β,15α,25R)-7,15-Dhydroxy-3,11,23-Trioxolanost-8-en-26-oic Amide]",184.9 to 185.3,83.9 ± 5.4 % of Control,57.4 ± 4.2 % of Control,87.7 ± 1.9 % of Control,72.0 ± 1.9 % of Control,116.4 ± 4.8 % of Control,120.7 ± 2.0 % of Control,108.9 ± 1.1 % of Control,,,,,,
"Cc1ccc(CNC(=O)[C@H](C)CC(=O)C[C@@H](C)[C@H]2C[C@H](O)[C@@]3(C)C4=C(C(=O)C[C@]23C)[C@@]2(C)CCC(=O)C(C)(C)[C@@H]2C[C@@H]4O)cc1 [Compound A5, (4-methylbenzyl)-(7β,15α,25R)-7,15-Dihydroxy-3,11,23-Trioxolanost-8-en-26-oic Amide]",208.7 to 209,75.0 ± 2.6 % of Control,64.5 ± 1.2 % of Control,78.5 ± 3.0 % of Control,69.1 ± 1.9 % of Control,115.0 ± 2.9 % of Control,107.4 ± 6.7 % of Control,99.5 ± 1.0 % of Control,110.4 ± 13.1 % of Control,97.0 ± 8.8 % of Control,,,,
"C[C@H](CC(=O)C[C@@H](C)[C@H]1C[C@H](O)[C@@]2(C)C3=C(C(=O)C[C@]12C)[C@@]1(C)CCC(=O)C(C)(C)[C@@H]1C[C@@H]3O)C(=O)NCc1ccc(F)cc1 [Compound A6, (4-Fluorobenzyl)-(7β,15α,25R)-7,15-Dihydroxy-3,11,23-Trioxolanost-8-en-26-oic Amide]",178.4 to 179.3,92.6 ± 3.1 % of Control,65.8 ± 3.2 % of Control,84.0 ± 0.8 % of Control,76.6 ± 1.6 % of Control,77.1 ± 4.2 % of Control,,26.4 ± 1.5 % of Control,89.6 ± 6.9 % of Control,80.2 ± 9.0 % of Control,weaker anti-proliferation effect,some toxicity,63.6,significant anti-proliferation activities
"C[C@H](CC(=O)C[C@@H](C)[C@H]1C[C@H](O)[C@@]2(C)C3=C(C(=O)C[C@]12C)[C@@]1(C)CCC(=O)C(C)(C)[C@@H]1C[C@@H]3O)C(=O)NCc1ccc(Cl)cc1 [Compound A7, (4-Chlorobenzyl)-(7β,15α,25R)-7,15-Dihydroxy-3,11,23-Trioxolanost-8-en-26-oic Amide]",188.6 to 189.4,81.6 ± 2.8 % of Control,77.1 ± 4.6 % of Control,73.8 ± 1.2 % of Control,53.4 ± 1.0 % of Control,73.5 ± 4.0 % of Control,,75.1 ± 13.2 % of Control,86.2 ± 3.7 % of Control,81.3 ± 3.3 % of Control,potent anti-proliferation activity,some toxicity,,significant anti-proliferation activities
"C[C@H](CC(=O)C[C@@H](C)[C@H]1C[C@H](O)[C@@]2(C)C3=C(C(=O)C[C@]12C)[C@@]1(C)CCC(=O)C(C)(C)[C@@H]1C[C@@H]3O)C(=O)NCc1cc(Cl)cc(Cl)c1 [Compound A8, (3,5-Dichlorobenzyl)-(7β,15α,25R)-7,15-Dihydroxy-3,11,23-Trioxolanost-8-en-26-oic Amide]",182.6 to 183.8,92.4 ± 1.4 % of Control,80.4 ± 4.7 % of Control,54.2 ± 2.0 % of Control,48.1 ± 1.5 % of Control,63.3 ± 8.3 % of Control,,39.4 ± 5.8 % of Control,107.8 ± 14.3 % of Control,91.0 ± 2.4 % of Control,potent anti-proliferation activity,,,significant anti-proliferation activities
"C[C@H](CC(=O)C[C@@H](C)[C@H]1C[C@H](O)[C@@]2(C)C3=C(C(=O)C[C@]12C)[C@@]1(C)CCC(=O)C(C)(C)[C@@H]1C[C@@H]3O)C(=O)N1CCN(C)CC1 [Compound A13, (4-Methylpiperazin-1-yl)-(7β,15α,25R)-7,15-Dihydroxy-3,11,23-Trioxolanost-8-en-26-oic Amide]",173.2 to 174.9,87.6 ± 3.8 % of Control,77.6 ± 3.5 % of Control,104.4 ± 2.0 % of Control,99.3 ± 4.9 % of Control,113.6 ± 2.1 % of Control,107.3 ± 9.1 % of Control,102.7 ± 3.5 % of Control,,,,,,
"CCN1CCN(C(=O)[C@H](C)CC(=O)C[C@@H](C)[C@H]2C[C@H](O)[C@@]3(C)C4=C(C(=O)C[C@]23C)[C@@]2(C)CCC(=O)C(C)(C)[C@@H]2C[C@@H]4O)CC1 [Compound A14, (4-Ethylpiperazin-1-yl)-(7β,15α,25R)-7,15-Dihydroxy-3,11,23-Trioxolanost-8-en-26-oic Amide]",198.5 to 199.4,70.4 ± 1.6 % of Control,47.3 ± 2.1 % of Control,95.6 ± 1.9 % of Control,99.3 ± 0.2 % of Control,106.2 ± 4.7 % of Control,102.2 ± 5.9 % of Control,96.2 ± 5.0 % of Control,,,,,,
